Calls of active or inactive are those of the source. Cut-off read from the data, not from the text of the source: actives have a measured IC50 and inactives only a lower limit.
target: Envelope glycoprotein gp160 (Human immunodeficiency virus 1, UniProt Q6QLK5); assay: cell-free HIV fusion peptide-binding blockers – biochemical, uHTS, fluorescence dequenching, […] (AID 1986)
Sequence (Q6QLK5 whole entry, the tested form may be a part): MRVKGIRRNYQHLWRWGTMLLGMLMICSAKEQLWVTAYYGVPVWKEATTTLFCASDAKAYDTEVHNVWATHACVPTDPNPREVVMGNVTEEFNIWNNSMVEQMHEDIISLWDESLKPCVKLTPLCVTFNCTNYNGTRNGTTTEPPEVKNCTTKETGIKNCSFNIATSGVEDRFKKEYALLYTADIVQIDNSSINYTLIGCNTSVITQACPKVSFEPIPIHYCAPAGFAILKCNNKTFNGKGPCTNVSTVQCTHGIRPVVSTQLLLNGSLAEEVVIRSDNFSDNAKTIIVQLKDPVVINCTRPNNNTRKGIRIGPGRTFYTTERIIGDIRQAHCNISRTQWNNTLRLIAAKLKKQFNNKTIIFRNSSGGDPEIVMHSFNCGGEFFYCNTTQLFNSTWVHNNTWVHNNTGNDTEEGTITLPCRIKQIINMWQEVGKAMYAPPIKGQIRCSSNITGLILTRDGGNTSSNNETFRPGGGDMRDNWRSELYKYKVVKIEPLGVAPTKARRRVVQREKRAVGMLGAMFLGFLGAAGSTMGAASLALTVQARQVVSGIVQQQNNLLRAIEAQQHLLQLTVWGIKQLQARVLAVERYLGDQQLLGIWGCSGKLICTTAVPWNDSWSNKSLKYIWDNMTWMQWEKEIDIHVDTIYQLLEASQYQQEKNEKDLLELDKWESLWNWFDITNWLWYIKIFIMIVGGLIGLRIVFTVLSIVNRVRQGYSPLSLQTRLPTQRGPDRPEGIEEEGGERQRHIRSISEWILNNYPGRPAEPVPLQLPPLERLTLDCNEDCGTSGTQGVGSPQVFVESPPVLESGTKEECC

SMILES	IC50
CCc1nnc(NS(=O)(=O)c2ccc(NC(=S)NC(=O)/C=C/c3ccc(C(C)C)cc3)cc2)s1	12.1 µM (active)
O=C(O)c1ccc(N/N=C/c2ccc(-c3cccc(Cl)c3)o2)cc1	22.2 µM (active)
CCOc1cc(/C=N/Nc2cccc(C(=O)O)c2)ccc1OC(=O)c1ccccc1	23.4 µM (active)
